Peptide text beside a SMILES is read from it.

In one experiment the target is T1, eIF2Bα (Homo sapiens, UniProt Q14232).
T1 construct: made in house; host or cells: E. coli BL21(DE3)
T1 sequence (Q14232 1-305): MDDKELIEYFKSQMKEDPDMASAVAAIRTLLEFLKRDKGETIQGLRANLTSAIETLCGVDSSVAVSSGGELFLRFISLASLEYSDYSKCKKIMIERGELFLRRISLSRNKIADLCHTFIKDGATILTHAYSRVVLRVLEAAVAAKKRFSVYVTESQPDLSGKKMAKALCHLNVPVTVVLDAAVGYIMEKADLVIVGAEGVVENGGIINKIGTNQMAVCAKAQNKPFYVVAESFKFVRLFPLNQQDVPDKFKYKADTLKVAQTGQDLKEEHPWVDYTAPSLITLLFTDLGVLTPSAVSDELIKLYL
Put plainly: MIDAS (mass spectrometry integrated with equilibrium dialysis) metabolite binding screen.
Details: not given
Put shortly: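 Hits called at Storey q < 0.1 on z-scores of PCA-corrected log2 fold change between protein and metabolite chambers, quantified by FIA-MS in triplicate.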
Orotidine 5-monophosphate: the “log2(corrected fold change)” value is 0.07073.

The same experiment, now with this note: MIDAS metabolite binding screen with eIF2Bα; sheet "eIF2Ba".
As for `CC(=O)N[C@@H](CC(=O)O)C(=O)O` [N-Acetyl-L-aspartate], the “log2(corrected fold change)” value came out at 0.003577.

Take `OC[C@H]1OC(O)[C@H](O)[C@@H](O)[C@@H]1O` (stereo partly drawn) [D-Glucose]: the “log2(corrected fold change)” value is -0.01874.

As for `O=c1ccn([C@H]2C[C@H](O)[C@@H](CO)O2)c(=O)[nH]1` [2-Deoxyuridine], the “log2(corrected fold change)” value is on record as 0.04824.

As to `O=C(O)[C@H](O)[C@@H](O)[C@H](O)[C@H](O)CO` [D-Gluconic acid], the “log2(corrected fold change)” value is listed as -0.01138.

Take `C[n+]1cccc(C(N)=O)c1` [1-Methylnicotinamide]: the “log2(corrected fold change)” value was determined as 0.02855.

Consider `CC(=O)NCCCC[C@H](N)C(=O)O` [Ne-Acetyl-lysine], for which the “log2(corrected fold change)” value is -0.03422.

Take `C[N+](C)(C)CCOP(=O)([O-])OC[C@H](O)CO` [L-alpha-Glycerophosphorylcholine]: the “log2(corrected fold change)” value was 0.1951.

Consider `Cc1ncc(COP(=O)(O)O)c(CN)c1O` [Pyridoxamine-5-phosphate], for which the “log2(corrected fold change)” value was -0.03281.

As to `O=C[C@H](O)CO` [D-Glyceraldehyde], the “log2(corrected fold change)” value is on record as -0.02892.

Take Stachyose: the “log2(corrected fold change)” value was -0.02264.

For `CNC[C@H](O)c1ccc(O)c(O)c1` [Epinephrine], the “log2(corrected fold change)” value is listed as -0.04113.

Consider `OC[C@H]1O[C@H](OC[C@H]2O[C@H](O[C@]3(CO)O[C@H](CO)[C@@H](O)[C@@H]3O)[C@H](O)[C@@H](O)[C@@H]2O)[C@H](O)[C@@H](O)[C@H]1O` [D-Raffinose], for which the “log2(corrected fold change)” value is -0.02977.

For the compound `O=C(O)c1cc(O)c2cccc(O)c2n1` [Xanthurenic acid], the “log2(corrected fold change)” value is recorded as -0.07533.

As to `CC(=O)N[C@@H](CC(=O)O)C(=O)N[C@@H](CCC(=O)O)C(=O)O` [N-Acetyl-Asp-Glu] (Ac-Asp-Glu-OH), the “log2(corrected fold change)” value is 0.1173.

As for `N[C@@H](C[C@@H](O)C(=O)O)C(=O)O` [(4R)-4-Hydroxy-L-glutamic acid], the “log2(corrected fold change)” value is -0.03114.

`Nc1ncnc2c1ncn2[C@@H]1O[C@H](COP(=O)(O)OP(=O)(O)NP(=O)(O)O)[C@@H](O)[C@H]1O` [Adenyl imidodiphosphate]: the “log2(corrected fold change)” value is on record as -0.08962.

On to `OCC(O)COC1OC(CO)C(O)C(O)C1O` (stereo not drawn) [2,3-Dihydroxypropyl hexopyranoside], for which the “log2(corrected fold change)” value was 0.03531.

Take `CC(C)CC(=O)SCCNC(=O)CCNC(=O)[C@H](O)C(C)(C)COP(=O)(O)OP(=O)(O)OC[C@H]1O[C@@H](n2cnc3c(N)ncnc32)[C@H](O)[C@@H]1OP(=O)(O)O` [Isovaleryl coenzyme A]: the “log2(corrected fold change)” value is listed as 0.1853.

As to `NCCCC(=O)O` [4-Aminobutanoate], the “log2(corrected fold change)” value is listed as 0.0213.

For the compound `Nc1nc2c(ncn2[C@@H]2O[C@H](CO)[C@@H](O)[C@H]2O)c(=O)[nH]1` [Guanosine], the “log2(corrected fold change)” value amounted to 0.01196.

As to `Nc1ccn([C@@H]2O[C@H](COP(=O)(O)OP(=O)(O)OCC(O)CO)[C@@H](O)[C@H]2O)c(=O)n1` (stereo partly drawn) [CDP-Glycerol], the “log2(corrected fold change)” value amounted to 0.002705.

Take `O=C(O)[C@@H]1C[C@@H](O)CN1` [Trans-4-Hydroxy-L-proline]: the “log2(corrected fold change)” value was 0.008003.

On to `C[C@H](O)C(=O)O` [L-Lactic acid], for which the “log2(corrected fold change)” value is listed as -0.02892.

With `O=C[C@H](O)[C@@H](O)[C@H](O)[C@H](O)C(=O)O` [D-Glucuronic acid], the “log2(corrected fold change)” value was -0.01884.

Regarding `CC(=O)N[C@@H](CCCCN)C(=O)O` [Nalpha-Acetyl-L-lysine], the “log2(corrected fold change)” value is -0.03422.

As to `O=C1O[C@H](CO)[C@@H](O)[C@H](O)[C@H]1O` [Glucono delta-lactone], the “log2(corrected fold change)” value is recorded as 0.01629.

In the case of `CN(C)CC(=O)O` [N,N-Dimethylglycine], the “log2(corrected fold change)” value came to 0.0213.

Take `NCCS(=O)(=O)O` [Taurine]: the “log2(corrected fold change)” value is -0.01154.

`CC[C@H](C)[C@H](N)C(=O)O` [L-Isoleucine]: the “log2(corrected fold change)” value is reported as -0.00688.

For the compound `Nc1nc2c(ncn2[C@@H]2O[C@@H]3COP(=O)(O)O[C@H]3[C@H]2O)c(=O)[nH]1` [Cyclic GMP], the “log2(corrected fold change)” value was determined as 0.01224.

Regarding `O=C(O)C[C@H](O)C(=O)O` [L-Malic acid], the “log2(corrected fold change)” value is -0.01079.

Turning to `NC(=O)C1=CN([C@@H]2O[C@H](COP(=O)(O)OP(=O)(O)OC[C@H]3O[C@@H](n4cnc5c(N)ncnc54)[C@H](O)[C@@H]3O)[C@@H](O)[C@H]2O)C=CC1` [NADH], the “log2(corrected fold change)” value is given as 0.1674.

Regarding `O=C(O)[C@@H](O)[C@@H](O)[C@H](O)[C@@H](O)C(=O)O` [D-Saccharic acid], the “log2(corrected fold change)” value is listed as -0.01904.

Staying with this experiment, now noted: MIDAS screen, sheet eIF2Ba; metabolites screened in pools 1-4; p-value and q-value given.
`Cc1ncc(CO)c(CO)c1O` [Pyridoxine]: the “log2(corrected fold change)” value was -0.04546.

`NC(=O)CC[C@H](N)C(=O)O` [L-Glutamine]: the “log2(corrected fold change)” value was determined as 0.1976.

For the compound `CC(O)CC(=O)O` (stereo not drawn) [3-Hydroxybutyric acid], the “log2(corrected fold change)” value worked out at 0.07137.

Consider `O=P(O)(O)OC[C@H]1O[C@H](OP(=O)(O)O)[C@H](O)[C@@H](O)[C@@H]1O` [D-Glucose 1,6-bisphosphate], for which the “log2(corrected fold change)” value is reported as -0.7792.

Consider `CC1CNC(=O)NC1=O` (stereo not drawn) [Dihydrothymine], for which the “log2(corrected fold change)” value was -0.08021.

Regarding `C[N+](C)(C)CCO` [Choline], the “log2(corrected fold change)” value is recorded as -0.1774.

For the compound `O=C(O)[C@H](O)[C@@H](O)[C@H](O)[C@H](O)COP(=O)(O)O` [6-Phosphogluconic acid], the “log2(corrected fold change)” value was -0.1601.

Turning to `C[N+](C)(C)CC(=O)O` [Betaine], the “log2(corrected fold change)” value stood at 0.2268.

On to D-Glucose 6-phosphate, for which the “log2(corrected fold change)” value is listed as -0.1344.

For the compound `N[C@@H](CS)C(=O)O` [L-Cysteine], the “log2(corrected fold change)” value is given as -0.1221.

For the compound `C[C@H](O)CC(=O)O` [(S)-3-Hydroxybutyric acid], the “log2(corrected fold change)” value came out at 0.07137.

Turning to `O=P(O)(O)OC[C@H]1OC(O)[C@@H](O)[C@@H](O)[C@@H]1O` (stereo partly drawn) [D-Mannose 6-phosphate], the “log2(corrected fold change)” value is recorded as -0.1344.

For `N[C@@H](Cc1ccc(O)c(I)c1)C(=O)O` [3-Iodo-L-tyrosine], the “log2(corrected fold change)” value came to 0.6259.

Take Phosphatidylcholine: the “log2(corrected fold change)” value is -0.03855.

In the case of `O=C(O)C(O)COP(=O)(O)O` [D-3-Phosphoglyceric acid], the “log2(corrected fold change)” value is 0.07991.

Take `Nc1ccn([C@H]2C[C@H](O)[C@@H](CO)O2)c(=O)n1` [2-Deoxycytidine]: the “log2(corrected fold change)” value was determined as 0.344.

In the case of `O=C(O)C(O)c1ccccc1` (racemic) [DL-Mandelic acid], the “log2(corrected fold change)” value worked out at 0.3212.

Regarding `O=c1[nH]c(=O)c2ncn([C@@H]3O[C@H](COP(=O)(O)O)[C@@H](O)[C@H]3O)c2[nH]1` [Xanthosine 5-monophosphate], the “log2(corrected fold change)” value is on record as -0.169.

As to `CC(C)(COP(=O)(O)OP(=O)(O)OC[C@H]1O[C@@H](n2cnc3c(N)ncnc32)[C@H](O)[C@@H]1O)[C@@H](O)C(=O)NCCC(=O)NCCS` [Dephosphocoenzyme A], the “log2(corrected fold change)” value is recorded as -0.1841.

Regarding `O=C(O)CC(=O)C(=O)O` [Oxaloacetic acid], the “log2(corrected fold change)” value came out at 0.1095.

As to `N[C@@H](Cc1cc(I)c(O)c(I)c1)C(=O)O` [3,5-Diiodo-L-tyrosine], the “log2(corrected fold change)” value came to 0.05791.

Take `NC(=O)c1ccc[n+]([C@@H]2O[C@H](COP(=O)([O-])O)[C@@H](O)[C@H]2O)c1` [Nicotinamide ribotide]: the “log2(corrected fold change)” value is reported as 1.511.

Consider `O=C1CC[C@H](C(=O)O)N1` [D-Pyroglutamic Acid], for which the “log2(corrected fold change)” value was -0.09309.

Turning to `N[C@H]1C(O)O[C@H](CO)[C@@H](O)[C@@H]1O` (stereo partly drawn) [D-Glucosamine], the “log2(corrected fold change)” value was found to be 0.1378.

Turning to `N[C@@H](CC(=O)O)C(=O)N[C@@H](Cc1ccccc1)C(=O)O` [L-a-Aspartyl-L-phenylalanine] (H-Asp-Phe-OH), the “log2(corrected fold change)” value is -0.1203.

With `O=C1C[C@@H](C(=O)O)NC(=O)N1` [L-Dihydroorotic acid], the “log2(corrected fold change)” value was -0.07946.

For `NC(=O)c1ccc[n+](C2OC(COP(=O)(O)OP(=O)(O)OCC3OC(n4cnc5c(=O)[nH]cnc54)C(O)C3O)C(O)C2O)c1` (stereo not drawn) [Nicotinamide hypoxanthine dinucleotide], the “log2(corrected fold change)” value amounted to 0.06307.

Turning to `CC(=O)NCCc1c[nH]c2ccc(O)cc12` [N-Acetyl-5-hydroxytryptamine], the “log2(corrected fold change)” value is 0.03423.

As to `O=Cc1cc(O)ccc1O` [2,5-Dihydroxybenzaldehyde], the “log2(corrected fold change)” value was found to be 0.1295.

With `NCCCN` [1,3-Diaminopropane], the “log2(corrected fold change)” value was 0.2387.

In the case of `O=C1OC[C@@H](O)[C@H]1O` [D-Erythrono-1,4-lactone], the “log2(corrected fold change)” value was -0.2396.

For the compound `NC(=O)NCCC(=O)O` [3-Ureidopropionic acid], the “log2(corrected fold change)” value is listed as 0.07649.

Consider `CC(=O)SCCNC(=O)CCNC(=O)[C@H](O)C(C)(C)COP(=O)(O)OP(=O)(O)OC[C@H]1O[C@@H](n2cnc3c(N)ncnc32)[C@H](O)[C@@H]1OP(=O)(O)O` [Acetyl coenzyme A], for which the “log2(corrected fold change)” value was -0.09022.

Consider `O=C(O)[C@@H]1CCCN1` [L-Proline], for which the “log2(corrected fold change)” value is recorded as -0.05584.

In the case of `NCCc1ccc(O)cc1` [Tyramine], the “log2(corrected fold change)” value was 0.3274.
